According to US6444809B1, “Therapeutic heterocycles” (Zeneca Limited, priority 1993, dated 2002):
Counter-ions that a name gives are not always drawn.

Tests used:
human NK2 receptor = target: T1, human NK2 receptor (Homo sapiens, UniProt P21452); test: Neurokinin A (NKA) receptor-binding assay (Test A), 3H-NKA binding to MEL cell membranes
T1 construct: expressed in transfected cells
T1 sequence (P21452 1-398): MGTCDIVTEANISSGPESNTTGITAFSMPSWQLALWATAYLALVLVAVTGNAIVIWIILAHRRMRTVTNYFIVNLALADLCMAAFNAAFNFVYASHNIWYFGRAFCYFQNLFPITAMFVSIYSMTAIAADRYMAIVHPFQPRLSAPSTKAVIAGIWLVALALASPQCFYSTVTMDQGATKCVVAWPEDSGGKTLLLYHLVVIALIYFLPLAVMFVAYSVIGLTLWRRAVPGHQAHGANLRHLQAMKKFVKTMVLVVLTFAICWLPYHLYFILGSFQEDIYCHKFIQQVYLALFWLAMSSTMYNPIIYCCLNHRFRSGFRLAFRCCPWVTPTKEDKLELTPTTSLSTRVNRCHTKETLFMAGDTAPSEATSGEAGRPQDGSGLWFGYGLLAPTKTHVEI
Excerpt: Neurokinin A (NKA) Receptor-binding Assay (Test A)
Heterologous protein expression in Mouse Erythroleukemia (MEL) cells uses the human globin locus control region (LCR) (F. Grosveld et al., Cell (1987) 51, 975-985). The cDNAs are inserted between the human beta-globin promoter and the second intron of the human beta-globin gene, and this expression cassette is then placed downstream of the LCR and transfected into MEL cells (M. Needham et al., Nucl. Acids Res. (1992) 20, 997-1003). Human NK2 receptor cDNA (A. Graham et al., Biochem. Biophys. Res. Commun. (1991) 177, 8-16) was isolated from human lung RNA by polymerase chain reaction and DNA sequenced. […] These were annealed and ligated to the hNK2R fragment by standard methods. Following cleavage with Hind III, the resulting fragment was cloned into the Hind III and Bam HI sites in the polylinker of the shuttle vector pMEG3. […] Directly after transfection, cells were diluted in culture medium to 10^4 and 10^5 cell per mL and 1 mL aliquots transferred to each well of a 24-well plate.
G418 was added to a concentration of 1 mg/mL 24 hours after the transfection to select for stable transfectants. […]
Nonspecific binding is routinely defined with 1 μM NKA. […] The filters are deposited in scintillation vials and read in a Beckman LS 6000LL Scintillation Counter.

guinea pig trachea = test: Guinea pig assay (Test B), antagonism of agonist (NKA or [β-Ala8]-NKA(4-10)) contraction of tracheal rings; assay type: cell-based
Description: Guinea Pig Assay (Test B)
In the test described below either NKA or [β-Ala^8]-NKA(4-10) is used as an agonist. The chosen agonist is refered to as AG throughout the description.
Male guinea pigs are killed by a sharp blow to the back of the head. The trachea are removed, trimmed of excess tissue and divided into two segments. […] Initial tension placed on each tissue is 1 g, which is maintained throughout a 0.5 to 1.5 hour equilibration period before addition of other drugs. Contractile responses are measured on a Grass polygraph via Grass FT-03 force transducers.
Tissues are challenged repetitively with a single concentration of AG (10 nM) with intervening 30 min periods with washing to allow the tension to return to baseline levels. […] Percent inhibition is determined when a Compound produces a statistically significant (p<0.05) reduction of the contraction and is calculated using the second contractile response as 100%.
Potencies of selected Compounds are evaluated by calculating apparent dissociation constants (KB) for each concentration tested using the standard equation: […]
where dose ratio=antilog[(AG −log molar EC50 without Compound) −(AG−log molar EC50 with Compound)]. The KB values may be converted to the negative logarithms and expressed as −log molar KB (i.e. PKB). […] The EC50 values are converted to the negative logarithms and expressed as −log molar EC50. […]

## CN(CC(CCN1CCC(N2CCOC2=O)CC1)c1ccc(Cl)c(Cl)c1)C(=O)c1ccccc1.Cl (stereo not shown) [Example 1, N-[2-(3,4-Dichlorophenyl)-4-[4-(2-oxo-1,3-oxazolidin-3-yl)piperidino]butyl]-N-methylbenzamide hydrochoride]
Human NK2 receptor; result in words
  NK2 antagonist activity in the in vitro screen (Test A): potent NK2 antagonist
Guinea pig trachea; result in words
  NK2 antagonist activity in the functional assay (Test B): potent NK2 antagonist

## CN(C[C@@H](CCN1CCC(N2CCCOC2=O)CC1)c1ccc(Cl)c(Cl)c1)C(=O)c1ccccc1 [Example 2, (S)-N-[2-(3,4-Dichlorophenyl)-4-(2-oxoperhydro-1,3-oxa-zin-3-yl)piperidino]butyl]-N-methylbenzamide hydrochloride]
Human NK2 receptor; Test A, typically found
  Ki: 4.1 nM
Guinea pig trachea; Cavia porcellus, Test B, -log molar apparent dissociation constant KB
  Kb: 2 nM
